Laboratory results as given in US9896440B2, “Aryl substituted heterocyclyl sulfones” (GRÜNENTHAL GMBH, priority 2014, dated 2018).

Target: T1, Human CaV2.2 channels (Homo sapiens, UniProt Q00975)
T1 construct: expressed in transfected cells; Kir2.3 also stably co-expressed
Test: Fluorescence assay for CaV2.2 channels using potassium depolarization to induce channel opening (FLIPR, Fluo 4)
Format: cell-based
Conditions: 30 mM KCl assay buffer (inactivated channel state), HEK293 cells; for inhibition at 3 µM: HEK293, 3 μM test compound, read-out: Activity Category: %-Inhib (CaV2.2) @3 μM @30 mM KCl; for Activity Category: %-Inhib (CaV2.2) @3 μM @30 mM KCl: 3 μM test compound
From the text: In the process, the Ca^2+ influx is quantified in the FLIPR assay with the aid of a Ca^2+-sensitive dye (type Fluo-4, Molecular Probes Europe BV, Leiden, the Netherlands) in a fluorescent imaging plate reader (FLIPR 3, Molecular Devices, Sunnyvale, USA), as described hereinafter.
Human CaV2.2 channels were stably expressed in HEK293 cells together with alpha2-delta and beta subunits of voltage gated calcium channels. In addition, an inwardly rectifying potassium channel (Kir2.3) was stably expressed in these cells to augment control of the cell membrane potential by the concentration of extracellular potassium ions. Raise of the extracellular potassium concentration leads to depolarization of the membrane potential and thus regulates the voltage dependent state of CaV2.2 channels. For preparation, cells were seeded in black poly-D-lysine coated 96-well plates (Becton Dickinson, Biocoat 4640) in 100 μL medium [500 mL DMEM/F-12 plus Glutamax (Invitrogen 31331-093) plus 5.5 mL MEM NEAA 100× (Invitrogen 11140-035) plus 50 mL FBS decomplemented (Invitrogen 10270-106) plus 200 μg/mL Geneticin (Invitrogen 10131-027) plus 50 μg/mL Hygromycin B (Invitrogen 10687-010) plus 2 μg/mL Blasticidin (anti-bl5b Invivo-Gen) plus 0.2 μg/mL Puromycin (A 11138-03)] at a cell density of 30.000 cells per well. Plates were incubated at 37° C. (5% CO2) for 20 to 23 h. On the day of experiment medium was discarded and cells were loaded with Fluo 4 by addition of 100 μL of basic assay buffer (10 mM HEPES, 1 mM KCl, 149 mM NaCl, 0.8 mM CaCl2, 1.7 mM MgCl2, 10 mM Glucose, 0.1% BSA. pH 7.4) containing 2 μM Fluo 4 (Molecular Probes; F-14201), 0.01% pluronic acid (Molecular Probes; P-6866) and 2.5 mM probenecid (Molecular Probes; P36400). Cells were incubated in the dark at 25° C. for 60 min. Then dye containing buffer was discarded and 100 μL basic (1 mM KCl) or alternative (30 mM KCl) assay buffer was added. The alternative assay buffer contained altered concentrations of KCl (30 mM) and NaCl (120 mM) and was used in order to promote the inactivated channel state. After that 25 μL of basic or alternative assay buffer with or without test compound were added and cells were incubated again in the dark at 25° C. for 15 min. Fluorescence intensity was measured on a FLIPR 3 instrument (Molecular Devices Corp., Sunnyvale, Calif.) with excitation at 480 nm and emission at 535 nm. After continuously reading fluorescence for 30 sec, 50 μL of basic assay buffer containing 210 mM KCl (NaCl omitted) were added for depolarization. Peak fluorescent signal intensity was determined and the amplitude of the peak signal, normalized to base line, was used to measure channel inhibition by test compounds.

T1 sequence (Q00975 whole entry): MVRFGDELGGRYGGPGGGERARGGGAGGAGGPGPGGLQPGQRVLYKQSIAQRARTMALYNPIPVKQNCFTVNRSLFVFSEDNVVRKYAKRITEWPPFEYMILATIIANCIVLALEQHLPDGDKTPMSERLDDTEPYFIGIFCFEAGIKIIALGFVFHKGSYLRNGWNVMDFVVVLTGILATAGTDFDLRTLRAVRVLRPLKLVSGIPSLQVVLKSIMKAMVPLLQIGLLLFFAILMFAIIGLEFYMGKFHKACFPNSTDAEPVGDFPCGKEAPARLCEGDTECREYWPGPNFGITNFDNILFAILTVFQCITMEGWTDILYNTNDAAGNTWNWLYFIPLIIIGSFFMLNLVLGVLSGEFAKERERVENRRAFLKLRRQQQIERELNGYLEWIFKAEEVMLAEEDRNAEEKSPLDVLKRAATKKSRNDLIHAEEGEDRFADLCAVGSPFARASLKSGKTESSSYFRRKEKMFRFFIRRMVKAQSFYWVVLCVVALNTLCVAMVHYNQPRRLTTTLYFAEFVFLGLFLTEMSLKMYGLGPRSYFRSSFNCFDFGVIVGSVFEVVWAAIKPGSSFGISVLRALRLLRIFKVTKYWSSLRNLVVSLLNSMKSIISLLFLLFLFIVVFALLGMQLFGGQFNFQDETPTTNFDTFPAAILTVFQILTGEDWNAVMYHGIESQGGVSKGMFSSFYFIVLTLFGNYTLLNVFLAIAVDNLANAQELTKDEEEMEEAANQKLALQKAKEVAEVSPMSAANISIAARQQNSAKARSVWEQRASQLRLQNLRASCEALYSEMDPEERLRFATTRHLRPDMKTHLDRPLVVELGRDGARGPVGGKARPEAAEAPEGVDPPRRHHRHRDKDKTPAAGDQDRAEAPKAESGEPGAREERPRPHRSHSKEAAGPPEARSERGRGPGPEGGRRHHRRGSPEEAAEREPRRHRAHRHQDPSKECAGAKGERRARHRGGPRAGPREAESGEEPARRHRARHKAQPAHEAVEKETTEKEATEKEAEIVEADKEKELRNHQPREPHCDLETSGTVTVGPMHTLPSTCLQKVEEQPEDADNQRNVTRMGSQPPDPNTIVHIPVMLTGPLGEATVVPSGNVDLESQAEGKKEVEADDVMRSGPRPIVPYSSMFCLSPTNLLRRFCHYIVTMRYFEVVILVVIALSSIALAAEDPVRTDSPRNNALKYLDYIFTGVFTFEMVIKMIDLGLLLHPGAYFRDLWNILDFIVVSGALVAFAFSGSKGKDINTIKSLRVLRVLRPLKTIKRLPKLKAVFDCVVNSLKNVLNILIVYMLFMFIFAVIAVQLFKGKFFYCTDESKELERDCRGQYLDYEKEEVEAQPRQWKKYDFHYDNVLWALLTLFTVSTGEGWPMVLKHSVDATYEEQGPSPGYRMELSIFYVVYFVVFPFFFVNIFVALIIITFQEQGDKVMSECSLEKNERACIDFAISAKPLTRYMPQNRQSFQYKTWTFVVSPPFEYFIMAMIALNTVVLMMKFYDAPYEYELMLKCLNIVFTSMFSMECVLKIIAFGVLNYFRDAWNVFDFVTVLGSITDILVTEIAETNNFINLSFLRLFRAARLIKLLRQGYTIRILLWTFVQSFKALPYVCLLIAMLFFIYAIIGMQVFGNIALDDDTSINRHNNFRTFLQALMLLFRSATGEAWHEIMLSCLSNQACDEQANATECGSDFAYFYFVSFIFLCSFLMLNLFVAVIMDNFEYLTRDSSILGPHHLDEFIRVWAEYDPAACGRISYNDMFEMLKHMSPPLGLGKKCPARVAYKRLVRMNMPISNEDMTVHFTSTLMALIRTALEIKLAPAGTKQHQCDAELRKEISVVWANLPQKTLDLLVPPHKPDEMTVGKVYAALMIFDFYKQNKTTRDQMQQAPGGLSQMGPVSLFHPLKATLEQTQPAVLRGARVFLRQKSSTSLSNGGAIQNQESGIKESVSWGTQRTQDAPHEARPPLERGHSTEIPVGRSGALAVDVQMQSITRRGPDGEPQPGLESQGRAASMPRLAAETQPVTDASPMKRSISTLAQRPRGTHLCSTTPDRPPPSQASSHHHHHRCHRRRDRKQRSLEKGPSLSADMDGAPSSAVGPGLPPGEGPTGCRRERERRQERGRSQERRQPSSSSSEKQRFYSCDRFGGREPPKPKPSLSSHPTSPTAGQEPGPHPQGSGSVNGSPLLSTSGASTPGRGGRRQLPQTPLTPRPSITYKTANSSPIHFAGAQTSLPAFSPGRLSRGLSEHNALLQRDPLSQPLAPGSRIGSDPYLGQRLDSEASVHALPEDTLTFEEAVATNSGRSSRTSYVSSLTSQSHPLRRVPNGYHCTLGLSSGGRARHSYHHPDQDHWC

Row | Compound | inhibition at 3 µM [%] | Activity Category: %-Inhib (CaV2.2) @3 μM @30 mM KCl
1 | CC1(S(=O)(=O)c2cccc(C(F)(F)F)c2)CCOC(c2ccc(F)c(C#N)c2)C1 (single isomer, unassigned) [SC-136, 2-Fluoro-5-[4-methyl-4-[[3-(trifluoromethyl)phenyl]sulfonyl]-tetrahydro-pyran-2-yl]-benzonitrile] | > 95 | 
2 | CC1(S(=O)(=O)c2cccc(C(F)(F)F)c2)CCOC(c2ccccc2S(C)(=O)=O)C1 (stereo not drawn) [SC-223, 4-Methyl-2-(2-methylsulfonyl-phenyl)-4-[[3-(trifluoromethyl)phenyl]sulfonyl]-tetrahydro-pyran] |  | C (%-Inhibition >40% up to ≦75%)
3 | CC1(S(=O)(=O)c2cccc(C(F)(F)F)c2)CCOC(COc2ccc(Cl)cc2)C1 (single isomer, unassigned) [SC-127, 2-((4-chlorophenoxy)methyl)-4-methyl-4-((3-(trifluoromethyl)phenyl)sulfonyl)tetrahydro-2H-pyran] | > 95 | 
4 | CC1(S(=O)(=O)c2cccc(OC(F)F)c2)CCOC(c2ccc(S(C)(=O)=O)cc2F)C1 (stereo not drawn) [SC-517, 4-[[3-(Difluoro-methoxy)-phenyl]sulfonyl]-2-(2-fluoro-4-methylsulfonyl-phenyl)-4-methyl-tetrahydro-pyran] |  | B (%-Inhibition >75% up to ≦95%)
5 | CC1(S(=O)(=O)c2cccc(C(F)(F)F)c2)CCOC(COc2ccc(S(C)(=O)=O)cc2F)C1 (single isomer, unassigned) [SC-148, 2-[(2-Fluoro-4-methylsulfonyl-phenoxy)-methyl]-4-methyl-4-[[3-(trifluoromethyl)phenyl]sulfonyl]-tetrahydro-pyran] | 75 to 95 | 
6 | Cc1cc(Cl)ccc1C1CC(C)(S(=O)(=O)c2cccc(C(F)(F)F)c2)CCO1 (stereo not drawn) [SC-224, 2-(4-Chloro-2-methyl-phenyl)-4-methyl-4-[[3-(trifluoromethyl)phenyl]sulfonyl]-tetrahydro-pyran] | 75 to 95 | 
7 | CC1(S(=O)(=O)c2cccc(C(F)(F)F)c2)CCOCC1c1ccc(Cl)cc1 (stereo not drawn) [SC-120, 3-(4-Chlorophenyl)-4-methyl-4-[[3-(trifluoromethyl)phenyl]sulfonyl]-tetrahydro-pyran] | 75 to 95 | 
8 | CC1(S(=O)(=O)c2cccc(C(F)F)c2)CCOC(c2ccc(S(C)(=O)=O)cc2F)C1 (stereo not drawn) [SC-509, 4-[[3-(Difluoro-methyl)-phenyl]sulfonyl]-2-(2-fluoro-4-methylsulfonyl-phenyl)-4-methyl-tetrahydro-pyran] | 75 to 95 | 
9 | C[S+]([O-])c1ccc(C2CC(C)(S(=O)(=O)c3cccc(C(F)(F)F)c3)CCO2)c(F)c1 (stereo not drawn) [SC-284, 2-[2-Fluoro-4-(methylsulfinyl)-phenyl]-4-methyl-4-[[3-(trifluoromethyl)phenyl]sulfonyl]-tetrahydro-pyran] |  | C (%-Inhibition >40% up to ≦75%)
10 | CC1(S(=O)(=O)c2cc(F)cc(C(F)(F)F)c2)CCOC(c2ccc(Cl)cc2)C1 (stereo not drawn) [SC-304, 2-(4-Chlorophenyl)-4-[[3-fluoro-5-(trifluoromethyl)-phenyl]sulfonyl]-4-methyl-tetrahydro-pyran] |  | A (%-Inhibition >95%)
11 | CC1(S(=O)(=O)c2cccc(OC(F)(F)F)c2)CCOC(c2ccc(S(C)(=O)=O)c(F)c2)C1 (stereo not drawn) [SC-265, 2-(3-Fluoro-4-methylsulfonyl-phenyl)-4-methyl-4-[[3-(trifluoromethyloxy)-phenyl]sulfonyl]-tetrahydro-pyran] | 75 to 95 | 
12 | CC1(S(=O)(=O)c2cccc(C(F)F)c2)CCOC(c2ccc(S(C)(=O)=O)c(F)c2)C1 (stereo not drawn) [SC-270, 4-[[3-(Difluoro-methyl)-phenyl]sulfonyl]-2-(3-fluoro-4-methylsulfonyl-phenyl)-4-methyl-tetrahydro-pyran] |  | B (%-Inhibition >75% up to ≦95%)
13 | CC1(C)CC(C)(S(=O)(=O)c2cccc(C(F)(F)F)c2)CC(c2ccc(Cl)cc2)O1 (stereo not drawn) [SC-300, 6-(4-Chlorophenyl)-2,2,4-trimethyl-4-[[3-(trifluoromethyl)phenyl]sulfonyl]-tetrahydro-pyran] | > 95 | 
14 | O=S(=O)(c1cccc(C(F)(F)F)c1)C1CCOC(c2ccc(Cl)cc2)C1 (stereo not drawn) [SC-401, 2-(4-Chlorophenyl)-4-[[3-(trifluoromethyl)phenyl]sulfonyl]-tetrahydro-pyran] | 75 to 95 | 
15 | CC(C)c1ccc(C(F)(F)F)cc1S(=O)(=O)C1CCOC(c2ccc(Cl)cc2)C1 (stereo not drawn) [SC-118, 2-(4-Chlorophenyl)-4-[[2-isopropyl-5-(trifluoromethyl)-phenyl]sulfonyl]-tetrahydro-pyran] | 40 to 75 | 
16 | CC1(S(=O)(=O)c2cc(F)cc(C(F)(F)F)c2)CCOC(c2ccc(Cl)cc2)C1 (stereo not drawn) [SC-303, 2-(4-Chlorophenyl)-4-[[3-fluoro-5-(trifluoromethyl)-phenyl]sulfonyl]-4-methyl-tetrahydro-pyran] | 75 to 95 | 
17 | CC1(S(=O)(=O)c2cccc(C(F)(F)F)c2)CCOC(c2cc(C(F)(F)F)cc(S(C)(=O)=O)c2)C1 (stereo not drawn) [SC-202, 4-Methyl-2-[3-methylsulfonyl-5-(trifluoromethyl)-phenyl]-4-[[3-(trifluoromethyl)phenyl]sulfonyl]-tetrahydro-pyran] | > 95 | 
18 | CC(C)c1cccc(S(=O)(=O)C2(C)CCOC(c3ccc(S(C)(=O)=O)c(F)c3)C2)c1 (stereo not drawn) [SC-271, 2-(3-Fluoro-4-methylsulfonyl-phenyl)-4-[(3-isopropyl-phenyl)sulfonyl]-4-methyl-tetrahydro-pyran] | > 95 | 
19 | Cc1cc(S(C)(=O)=O)ccc1C1CC(C)(S(=O)(=O)c2cccc(C(F)(F)F)c2)CCO1 (stereo not drawn) [SC-253, 4-Methyl-2-(2-methyl-4-methylsulfonyl-phenyl)-4-[[3-(trifluoromethyl)phenyl]sulfonyl]-tetrahydro-pyran] | 75 to 95 | 
20 | Cc1ccc(S(C)(=O)=O)cc1C1CC(C)(S(=O)(=O)c2cccc(C(F)(F)F)c2)CCO1 (stereo not drawn) [SC-200, 4-Methyl-2-(2-methyl-5-methylsulfonyl-phenyl)-4-[[3-(trifluoromethyl)phenyl]sulfonyl]-tetrahydro-pyran] | 75 to 95 | 
21 | CC1(S(=O)(=O)c2cccc(C(F)(F)F)c2)CCOC(c2ccccc2S(C)(=O)=O)C1 (stereo not drawn) [SC-222, 4-Methyl-2-(2-methylsulfonyl-phenyl)-4-[[3-(trifluoromethyl)phenyl]sulfonyl]-tetrahydro-pyran] |  | A (%-Inhibition >95%)
22 | CC1(S(=O)(=O)c2cccc(OC(F)(F)F)c2)CCOC(c2ccc(S(C)(=O)=O)c(F)c2)C1 (stereo not drawn) [SC-266, 2-(3-Fluoro-4-methylsulfonyl-phenyl)-4-methyl-4-[[3-(trifluoromethyloxy)-phenyl]sulfonyl]-tetrahydro-pyran] |  | A (%-Inhibition >95%)
23 | CC1(S(=O)(=O)c2cccc(C(F)(F)F)c2)CCOC(c2ccc3c(c2)OC(F)(F)O3)C1 (stereo not drawn) [SC-259, 2,2-Difluoro-5-[4-methyl-4-[[3-(trifluoromethyl)phenyl]sulfonyl]-tetrahydro-pyran-2-yl]-1,3-benzodioxole] | > 95 | 
24 | CC1(S(=O)(=O)c2cccc(C(F)(F)F)n2)CCOC(c2ccc(S(C)(=O)=O)c(F)c2)C1 (stereo not drawn) [SC-245, 2-[[2-(3-Fluoro-4-methylsulfonyl-phenyl)-4-methyl-tetrahydro-pyran-4-yl]sulfonyl]-6-(trifluoromethyl)-pyridine] | 40 to 75 | 
25 | CC1(S(=O)(=O)c2cccc(C(F)(F)F)c2)CCOC(c2cc(S(C)(=O)=O)ccc2Cl)C1 (stereo not drawn) [SC-247, 2-(2-Chloro-5-methylsulfonyl-phenyl)-4-methyl-4-[[3-(trifluoromethyl)phenyl]sulfonyl]-tetrahydro-pyran] | > 95 | 
26 | CC1(S(=O)(=O)c2cccc(C(F)(F)F)c2)CCOC(c2ccc(S(C)(=O)=O)cc2Cl)C1 (stereo not drawn) [SC-218, 2-(2-Chloro-4-methylsulfonyl-phenyl)-4-methyl-4-[[3-(trifluoromethyl)phenyl]sulfonyl]-tetrahydro-pyran] | > 95 | 
27 | CC1(S(=O)(=O)c2cccc(C(F)(F)F)c2)CCOC(c2ccc3c(c2)CCO3)C1 (stereo not drawn) [SC-263, 5-[4-Methyl-4-[[3-(trifluoromethyl)phenyl]sulfonyl]-tetrahydro-pyran-2-yl]-2,3-dihydro-benzofuran] | > 95 | 
